Measured values published in PubChem BioAssay AID2060894 (Molecular Pharmacology Branch, DTP, NCI, 2025).

Tested on: K12877-001-R-J1-PDC complex spheroid viability
Assay: Anticancer human tumor K12877-001-R-J1-PDC patient-derived lung adenocarcinoma cell line growth inhibition [RAS]
Conditions: for IC50: curve of first compound; for viability, T/C: stronger effect = lower value
Summary of the method: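 Multi-cell-type spheroids: tumor cells plus HUVEC endothelial cells and mesenchymal stem cells. RAS-pathway inhibitors were combined with targeted agents, each dosed in half-log steps down from clinical Cmax, or from 10 microM when Cmax was unknown.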
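Note: spheroids exposed to agents for one week before readout.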
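Throughout, for viability, T/C: tumour cells co-cultured with HUVEC and mesenchymal stem cells in spheroids.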

SMILES: CC(Nc1ccc2c(c1)OCCn1cc(N3C(=O)OCC3C(F)F)nc1-2)C(N)=O (centres undefined) + C#Cc1c(F)ccc2cc(O)cc(-c3ncc4c(N5CC6CCC(C5)N6)nc(OCC56CCCN5CC(F)C6)nc4c3F)c12
- IC50 (second compound 0.0316 µM): 4.9 µM
- IC50 (second compound 0.1 µM): 3.94 µM
- IC50 (second compound 0.316 µM): 4.32 µM
- IC50 (second compound 1 µM): 4.49 µM
- IC50 (second compound 3.16 µM): 4.63 µM
- IC50 (second compound 10 µM): 2.91 µM
- viability, T/C (second compound 0.0316 µM, first compound 0.0316 µM): 97.5%
- viability, T/C (second compound 0.0316 µM, first compound 0.1 µM): 88.9%
- viability, T/C (second compound 0.0316 µM, first compound 0.316 µM): 80.2%
- viability, T/C (second compound 0.0316 µM, first compound 1 µM): 69.6%
- viability, T/C (second compound 0.0316 µM, first compound 3.16 µM): 60.4%
- viability, T/C (second compound 0.0316 µM, first compound 10 µM): 37.4%
- viability, T/C (second compound 0.1 µM, first compound 0.0316 µM): 107%
- viability, T/C (second compound 0.1 µM, first compound 0.1 µM): 82.7%
- viability, T/C (second compound 0.1 µM, first compound 0.316 µM): 84.6%
- viability, T/C (second compound 0.1 µM, first compound 1 µM): 62.7%
- viability, T/C (second compound 0.1 µM, first compound 3.16 µM): 56.7%
- viability, T/C (second compound 0.1 µM, first compound 10 µM): 37%
- viability, T/C (second compound 0.316 µM, first compound 0.0316 µM): 110%
- viability, T/C (second compound 0.316 µM, first compound 0.1 µM): 88.9%
- viability, T/C (second compound 0.316 µM, first compound 0.316 µM): 73.9%
- viability, T/C (second compound 0.316 µM, first compound 1 µM): 71.2%
- viability, T/C (second compound 0.316 µM, first compound 3.16 µM): 55.1%
- viability, T/C (second compound 0.316 µM, first compound 10 µM): 38.8%
- viability, T/C (second compound 1 µM, first compound 0.0316 µM): 96.3%
- viability, T/C (second compound 1 µM, first compound 0.1 µM): 90.3%
- viability, T/C (second compound 1 µM, first compound 0.316 µM): 78.5%
- viability, T/C (second compound 1 µM, first compound 1 µM): 64.5%
- viability, T/C (second compound 1 µM, first compound 3.16 µM): 60.3%
- viability, T/C (second compound 1 µM, first compound 10 µM): 37%
- viability, T/C (second compound 3.16 µM, first compound 0.0316 µM): 103%
- viability, T/C (second compound 3.16 µM, first compound 0.1 µM): 89.4%
- viability, T/C (second compound 3.16 µM, first compound 0.316 µM): 79.6%
- viability, T/C (second compound 3.16 µM, first compound 1 µM): 65.1%
- viability, T/C (second compound 3.16 µM, first compound 3.16 µM): 64.8%
- viability, T/C (second compound 3.16 µM, first compound 10 µM): 35.2%
- viability, T/C (second compound 10 µM, first compound 0.0316 µM): 99.5%
- viability, T/C (second compound 10 µM, first compound 0.1 µM): 75.7%
- viability, T/C (second compound 10 µM, first compound 0.316 µM): 68.8%
- viability, T/C (second compound 10 µM, first compound 1 µM): 63%
- viability, T/C (second compound 10 µM, first compound 3.16 µM): 66.5%
- viability, T/C (second compound 10 µM, first compound 10 µM): 23.8%

SMILES: CC1(O)CCCC1n1c(=O)c(C(F)F)cc2cnc(NC3CCN(S(C)(=O)=O)CC3)nc21 (centres undefined) + CCn1c(-c2cc(N3CCN(C)CC3)cnc2C(C)OC)c2c3cc(ccc31)-c1csc(n1)CC(NC(=O)C1CC1C)C(=O)N1CCCC(N1)C(=O)OCC(C)(C)C2
- IC50 (second compound 0.000949 µM): 4.01 µM
- IC50 (second compound 0.003 µM): 1.99 µM
- IC50 (second compound 0.00949 µM): 1.84 µM
- IC50 (second compound 0.03 µM): 0.889 µM
- IC50 (second compound 0.0949 µM): 0.545 µM
- IC50 (second compound 0.3 µM): 0.382 µM
- viability, T/C (second compound 0.000949 µM, first compound 0.0316 µM): 95.9%
- viability, T/C (second compound 0.000949 µM, first compound 0.1 µM): 78%
- viability, T/C (second compound 0.000949 µM, first compound 0.316 µM): 80.6%
- viability, T/C (second compound 0.000949 µM, first compound 1 µM): 75.6%
- viability, T/C (second compound 0.000949 µM, first compound 3.16 µM): 64.5%
- viability, T/C (second compound 0.000949 µM, first compound 10 µM): 3.86%
- viability, T/C (second compound 0.003 µM, first compound 0.0316 µM): 68.9%
- viability, T/C (second compound 0.003 µM, first compound 0.1 µM): 74%
- viability, T/C (second compound 0.003 µM, first compound 0.316 µM): 64.5%
- viability, T/C (second compound 0.003 µM, first compound 1 µM): 56.2%
- viability, T/C (second compound 0.003 µM, first compound 3.16 µM): 46.3%
- viability, T/C (second compound 0.003 µM, first compound 10 µM): 3.15%
- viability, T/C (second compound 0.00949 µM, first compound 0.0316 µM): 69.5%
- viability, T/C (second compound 0.00949 µM, first compound 0.1 µM): 75.4%
- viability, T/C (second compound 0.00949 µM, first compound 0.316 µM): 46.4%
- viability, T/C (second compound 0.00949 µM, first compound 1 µM): 56.5%
- viability, T/C (second compound 0.00949 µM, first compound 3.16 µM): 48.5%
- viability, T/C (second compound 0.00949 µM, first compound 10 µM): 2.9%
- viability, T/C (second compound 0.03 µM, first compound 0.0316 µM): 98.8%
- viability, T/C (second compound 0.03 µM, first compound 0.1 µM): 82%
- viability, T/C (second compound 0.03 µM, first compound 0.316 µM): 47.6%
- viability, T/C (second compound 0.03 µM, first compound 1 µM): 58.9%
- viability, T/C (second compound 0.03 µM, first compound 3.16 µM): 46%
- viability, T/C (second compound 0.03 µM, first compound 10 µM): 2.97%
- viability, T/C (second compound 0.0949 µM, first compound 0.0316 µM): 92%
- viability, T/C (second compound 0.0949 µM, first compound 0.1 µM): 62.1%
- viability, T/C (second compound 0.0949 µM, first compound 0.316 µM): 45.7%
- viability, T/C (second compound 0.0949 µM, first compound 1 µM): 50.4%
- viability, T/C (second compound 0.0949 µM, first compound 3.16 µM): 41.6%
- viability, T/C (second compound 0.0949 µM, first compound 10 µM): 2.68%
- viability, T/C (second compound 0.3 µM, first compound 0.0316 µM): 76.7%
- viability, T/C (second compound 0.3 µM, first compound 0.1 µM): 58%
- viability, T/C (second compound 0.3 µM, first compound 0.316 µM): 41.7%
- viability, T/C (second compound 0.3 µM, first compound 1 µM): 49.6%
- viability, T/C (second compound 0.3 µM, first compound 3.16 µM): 43.6%
- viability, T/C (second compound 0.3 µM, first compound 10 µM): 2.64%
